Test results from ChEMBL document CHEMBL4715854, “Discovery of Roblitinib (FGF401) as a Reversible-Covalent Inhibitor of the Kinase Activity of Fibroblast Growth Factor Receptor 4” (J Med Chem, 2020).
Converted amounts (≈) assume the structure as drawn.

Columns and labels:
[1] = Clearance in Sprague-Dawley rat at 0.5 mg/kg, iv or 3 mg/kg, po measured upto 24 hrs by LC-MS/MS analysis; assay type: ADME, organism-based; settings: in vivo
[2] = Half life in human liver S9 fraction at 1 uM in presence of NADPH incubated upto 120 mins by LC-MS/MS analysis; assay type: ADME, subcellular
[3] = Clearance in human liver microsome at 10 mM measured after 15 mins in presence of NADPH by LC-MS analysis; assay type: ADME; settings: liver microsomes, read-out: CLH
[4] = Clearance in mouse cryopreserved hepatocytes at 1 uM incubated from 1 to 80 mins by LC-MS/MS analysis; assay type: ADME, cell-based, Hepatocyte; settings: time 1-80 min
[5] = Clearance in rat cryopreserved hepatocytes at 1 uM incubated from 1 to 80 mins by LC-MS/MS analysis; assay type: ADME, cell-based, Hepatocyte; settings: time 1-80 min
[6] = Clearance in dog cryopreserved hepatocytes at 1 uM incubated from 1 to 80 mins by LC-MS/MS analysis; assay type: ADME, cell-based, Canis lupus familiaris, Hepatocyte; settings: time 1-80 min
[7] = Clearance in human cryopreserved hepatocytes at 1 uM incubated from 1 to 80 mins by LC-MS/MS analysis; assay type: ADME, cell-based, Hepatocyte; settings: time 1-80 min
[8] = Half life in mouse liver S9 fraction at 1 uM in presence of NADPH incubated upto 120 mins by LC-MS/MS analysis; assay type: ADME, subcellular
[9] = Half life in rat liver S9 fraction at 1 uM in presence of NADPH incubated upto 120 mins by LC-MS/MS analysis; assay type: ADME, subcellular
[10] = Half life in dog liver S9 fraction at 1 uM in presence of NADPH incubated upto 120 mins by LC-MS/MS analysis; assay type: ADME, subcellular, Canis lupus familiaris
[11] = Half life in mouse intestinal S9 fraction in presence of NADPH; assay type: ADME, subcellular, Intestine
[12] = Half life in rat intestinal S9 fraction in presence of NADPH; assay type: ADME, subcellular, Intestine
[13] = Half life in dog intestinal S9 fraction in presence of NADPH; assay type: ADME, subcellular, Canis lupus familiaris, Intestine; settings: time 120 min
[14] = Half life in human intestinal S9 fraction in presence of NADPH; assay type: ADME, subcellular, Intestine
[15] = Half-life in Sprague-Dawley rat at 0.5 mg/kg, iv or 3 mg/kg, po measured upto 24 hrs by LC-MS/MS analysis; assay type: ADME, organism-based; settings: in vivo
[16] = Dissociation constant, pKa of compound by potentiometric titration method; assay type: physicochemical
[17] = Oral bioavailability in Beagle dog at 0.3 mg/kg by LC-MS/MS analysis; assay type: ADME, organism-based, Canis lupus familiaris; settings: in vivo
[18] = Half-life in Beagle dog at 0.1 mg/kg, iv or 0.3 mg/kg, po by LC-MS/MS analysis; assay type: ADME, organism-based, Canis lupus familiaris; settings: in vivo
[19] = Volume of distribution at steady state in Beagle dog at 0.1 mg/kg, iv or 0.3 mg/kg, po by LC-MS/MS analysis; assay type: ADME, organism-based, Canis lupus familiaris; settings: in vivo, read-out: Vdss
[20] = Clearance in Beagle dog at 0.1 mg/kg, iv or 0.3 mg/kg, po by LC-MS/MS analysis; assay type: ADME, organism-based, Canis lupus familiaris; settings: in vivo
[21] = Volume of distribution at steady state in female Balb/c mouse at 1 mg/kg, iv or 3 mg/kg, po; assay type: ADME, organism-based; settings: in vivo, read-out: Vdss
[22] = Apparent permeability of compound across basolateral to apical side in human Caco2 cells at 10 mM incubated for 120 mins by lucifer yellow based LC/MS/MS analysis; assay type: ADME, cell-based; settings: Caco-2
[23] = Apparent permeability of compound across apical to basolateral side in human Caco2 cells at 10 mM incubated for 120 mins by lucifer yellow based LC/MS/MS analysis; assay type: ADME, cell-based; settings: Caco-2
[24] = Volume of distribution at steady state in Crl:CD (SD) rat at 1 mg/kg, iv or 3 mg/kg, po measured upto 24 hrs by LC-MS/MS analysis; assay type: ADME, organism-based; settings: in vivo, read-out: Vdss
[25] = Oral bioavailability in Crl:CD (SD) rat at 3 mg/kg measured upto 24 hrs by LC-MS/MS analysis; assay type: ADME, organism-based; settings: Crl:CD (SD), in vivo
[26] = Thermodynamic solubility of compound in phosphate buffer at pH 6.8 measured after 15 mins by shake-flask method based LC-HRMS analysis; assay type: physicochemical; settings: read-out: Therm_solubility
[27] = Half-life in female Balb/c mouse at 1 mg/kg, iv or 3 mg/kg, po; assay type: ADME, organism-based; settings: in vivo
[28] = Oral bioavailability in female Balb/c mouse at 3 mg/kg; assay type: ADME, organism-based; settings: in vivo
[29] = Cmax in mouse xenografted with human Huh-7 cells at 3 mg/kg, po BID administered for 8 days; assay type: ADME, organism-based; parameters: route oral, time 8 day, dose 3 mg/kg; settings: in vivo
[30] = Clearance in dog liver microsome at 10 mM measured after 15 mins in presence of NADPH by LC-MS analysis; assay type: ADME, Canis lupus familiaris; settings: liver microsomes, read-out: CLH
[31] = Clearance in rat liver microsome at 10 mM measured after 15 mins in presence of NADPH by LC-MS analysis; assay type: ADME; settings: liver microsomes, read-out: CLH
[32] = Clearance in mouse liver microsome at 10 mM measured after 15 mins in presence of NADPH by LC-MS analysis; assay type: ADME; settings: liver microsomes, read-out: CLH
[33] = AUC (0-48 hrs) in mouse xenografted with human Huh-7 cells at 12 mg/kg, po administered every other day for 8 days; assay type: ADME, organism-based; parameters: route oral, time 8 day, dose 12 mg/kg; settings: in vivo
[34] = Cmax in mouse xenografted with human Huh-7 cells at 12 mg/kg, po administered every other day for 8 days; assay type: ADME, organism-based; parameters: route oral, time 8 day, dose 12 mg/kg; settings: in vivo
[35] = AUC (0-48 hrs) in mouse xenografted with human Huh-7 cells at 6 mg/kg, po qd administered for 8 days; assay type: ADME, organism-based; parameters: route oral, time 8 day, dose 6 mg/kg; settings: in vivo
[36] = Cmax in mouse xenografted with human Huh-7 cells at 6 mg/kg, po qd administered for 8 days; assay type: ADME, organism-based; parameters: route oral, dose 6 mg/kg, time 8 day; settings: in vivo
[37] = AUC (0-48 hrs) in mouse xenografted with human Huh-7 cells at 3 mg/kg, po BID administered for 8 days; assay type: ADME, organism-based; parameters: route oral, dose 3 mg/kg, time 8 day; settings: in vivo, 192 h
[38] = Drug metabolism in Crl:CD (SD) rat at 1 mg/kg, iv assessed as N-(5-cyanopyridin-2-yl)-7-formyl-3,4-dihydro-1,8-naphthyridine-1(2H)-carboxamide metabolite formation by LC-MS/MS analysis; assay type: ADME, organism-based; settings: in vivo
[39] = Drug metabolism in rat liver microsomes assessed as N-(5-cyanopyridin-2-yl)-7-formyl-3,4-dihydro-1,8-naphthyridine-1(2H)-carboxamide metabolite formation in presence of NADPH by LC-MS analysis; assay type: ADME, Microsome
[40] = Drug absorption in Sprague-Dawley rat at 10 to 100 mg/kg, po qd for 10 days by LC-MS/MS analysis; assay type: ADME, organism-based; settings: in vivo, 240 h, dose 10-100 mg/kg, time 10 day
[41] = Tmax in Sprague-Dawley rat at 10 to 100 mg/kg, po qd for 10 days by LC-MS/MS analysis; assay type: ADME, organism-based; settings: in vivo, dose 10-100 mg/kg, time 10 day
[42] = AUC (0 to 24 hrs) in Crl:CD (SD) rat at 30 mg/kg, po qd treated for 1 day measured by LC-MS/MS analysis; assay type: ADME, organism-based; parameters: route oral, time 1 day, dose 30 mg/kg; settings: in vivo
[43] = AUC (0 to 24 hrs) in Crl:CD (SD) rat at 100 mg/kg, po qd treated for 1 day measured by LC-MS/MS analysis; assay type: ADME, organism-based; parameters: route oral, time 1 day, dose 100 mg/kg; settings: in vivo
[44] = AUC (0 to 24 hrs) in Crl:CD (SD) rat at 10 mg/kg, po qd treated for 1 day measured by LC-MS/MS analysis; assay type: ADME, organism-based; parameters: route oral, dose 10 mg/kg, time 1 day; settings: in vivo
[45] = AUC (0 to 12 hrs) in C57BL/6 mouse at 30 mg/kg, po BID treated for 6 days measured by LC-MS/MS analysis; assay type: ADME, organism-based; parameters: route oral, dose 30 mg/kg, time 6 day; settings: in vivo
[46] = AUC in Beagle dog at 0.1 mg/kg, iv by LC-MS/MS analysis; assay type: ADME, organism-based, Canis lupus familiaris; parameters: dose 0.1 mg/kg; settings: in vivo
[47] = AUC in Beagle dog at 0.3 mg/kg, po by LC-MS/MS analysis; assay type: ADME, organism-based, Canis lupus familiaris; parameters: dose 0.3 mg/kg; settings: in vivo
[48] = Half-life in C57BL/6 mouse at 0.5 mg/kg, iv measured up to 24 hrs by LC-MS/MS analysis; assay type: ADME, organism-based; settings: in vivo
[49] = AUC in C57BL/6 mouse at 0.5 mg/kg, iv measured up to 24 hrs by LC-MS/MS analysis; assay type: ADME, organism-based; parameters: route intravenous, dose 0.5 mg/kg, time <=24; settings: in vivo
[50] = Volume of distribution at steady state in C57BL/6 mouse at 0.5 mg/kg, iv measured up to 24 hrs by LC-MS/MS analysis; assay type: ADME, organism-based; settings: in vivo, read-out: Vdss
[51] = Clearance in C57BL/6 mouse at 0.5 mg/kg, iv measured up to 24 hrs by LC-MS/MS analysis; assay type: ADME, organism-based; settings: in vivo
[52] = Half-life in Crl:CD (SD) rat at 1 mg/kg, iv or 3 mg/kg, po measured upto 24 hrs by LC-MS/MS analysis; assay type: ADME, organism-based; settings: in vivo
[53] = Clearance in Crl:CD (SD) rat at 1 mg/kg, iv or 3 mg/kg, po measured up to 24 hrs by LC-MS/MS analysis; assay type: ADME, organism-based; settings: in vivo
[54] = Plasma concentration in mouse xenografted with human Huh7 cells at 30 mg/kg, po BID administered for 14 days measured 12 hrs post-last dose; assay type: ADME, organism-based; settings: time 14 day
[55] = Dose normalized AUC in Crl:CD (SD) rat at 3 mg/kg, po measured up to 24 hrs by LC-MS/MS analysis; assay type: ADME, organism-based; settings: in vivo
[56] = Dose normalized AUC in Crl:CD (SD) rat at 1 mg/kg, iv measured up to 24 hrs by LC-MS/MS analysis; assay type: ADME, organism-based; settings: in vivo

## COCCOc1cc(NC(=O)N2CCCc3cc(CN4CCN(C)CC4=O)c(C=O)nc32)ncc1C#N
[1]
  clearance: 19 mL/min/kg
[2]
  half-life at 1 µM: > 2 h
[3]
  microsomal CLint at […], 10000 µM: 29 µL/min/mg
[4]
  CLH: 2.5 µL/min/mg
[5]
  CLH: 11 µL/min/mg
[6]
  CLH: 6.5 µL/min/mg
[7]
  CLH: 5.7 µL/min/mg
[8]
  half-life at 1 µM: > 2 h
[9]
  half-life at 1 µM: > 2 h
[10]
  half-life at 1 µM: 0.867 h
[11]
  half-life: > 2 h
[12]
  half-life: > 2 h
[13]
  half-life at 1 µM: > 2 h
[14]
  half-life: > 2 h
[15]
  half-life: 4.4 h
[16]
  pKa: 5.3
[17]; Beagle
  bioavailability: 69%
[18]
  half-life: 6.5 h
[19]
  Vd: 3 L/kg
[20]
  clearance: 8 mL/min/kg
[21]
  Vd: 2.3 L/kg
[22]
  Papp B→A at 2 h, 10000 µM: 11 ×10⁻⁶ cm/s
[23]
  Papp A→B at 2 h, 10000 µM: 7.4 ×10⁻⁶ cm/s
[24]
  Vd: 3.9 L/kg
[25]
  bioavailability: 20%
[26]
  solubility thermodynamic at […]: 16 µM (≈ 8.12 µg/mL)
[27]
  half-life: 1.4 h
[28]
  F: 20%
[29]
  Cmax: 180 nM
[30]
  microsomal CLint at […], 10000 µM: 34 µL/min/mg
[31]
  microsomal CLint at […], 10000 µM: 18 µL/min/mg
[32]
  microsomal CLint at […], 10000 µM: 18 µL/min/mg
[33]
  AUC at 192 h: 7.2 µM·h
[34]
  Cmax: 1260 nM
[35]
  AUC at 192 h: 5.2 µM·h
[36]
  Cmax: 770 nM
[37]
  AUC: 3.6 µM·h

## N#Cc1ccc(NC(=O)N2CCCc3ccc(CO)nc32)nc1
[38]
  Drug metabolism: 1.3 nM
[39]
  Drug metabolism: 1.3 nM

## CC(C)Oc1cc(NC(=O)N2CCCc3cc(CN4CCCC4=O)c(C=O)nc32)ncc1C#N
[40]
  Drug absorption: Active
[41]
  Tmax: 2 h
[42]
  AUC at 24 h: 5400 ng·h/mL
[43]
  AUC at 24 h: 18700 ng·h/mL
[44]
  AUC at 24 h: 2830 ng·h/mL
[45]
  AUC at 144 h: 8250 ng·h/mL
[17]; 0.3 mg/kg
  F: 25%
[46]
  AUC: 20.082 µM·h
[47]
  AUC: 5.05 µM·h
[18]
  half-life: 8.1 h
[19]
  Vd: 1.1 L/kg
[48]
  half-life: 5.2 h
[49]
  AUC at 24 h: 4.54 µM·h
[50]
  Vd: 1.4 L/kg
[51]
  clearance: 8 mL/min/kg
[52]
  half-life: 14.2 h
[24]
  Vd: 7.2 L/kg
[53]
  clearance: 21 mL/min/kg
[25]
  bioavailability: 33%
[26]
  solubility thermodynamic at […]: < 6 µM
[54]
  concentration at 336 h: 500 nM
[55]
  AUC/dose: 587 nM·h
[56]
  AUC/dose: 1768 nM·h
